In patent US20210284621A1 (priority 2018, published 2021):
Read-outs that look alike come from different tables or passages of the source.

Columns and labels:
CB2 receptor [1] = target: T1, CB2 receptor (Homo sapiens, UniProt P34972); assay: cAMP Assay #1: CB2 adenylylcyclase assay in CHO cells; type: cell-based; set-up: expressed in transfected cells; host or cells: CHO cells
Protocol: Compounds of the invention were assayed in an adenylylcyclase assay to determine agonist activity on the CB1 and CB2 receptors, the results of which are provided in Table 4. Exemplary methods for the adenylylcyclase assay can be found in the literature, for example, in Rhee, M-H., et al. Cannabinol Derivatives: Binding to Cannabinoid Receptors and Inhibition of Adenylylcyclase. J Med Chem. 40: 3228-3233 (1997).
CB2 Activity as determined by Adenylylcyclase Assay: CB2 receptor agonist activity was measured by measuring cAMP production. A compound of the invention was incubated with CHO cells expressing human recombinant CB2 for 10 minutes at 37° C.
Determination of EC50 values: The EC50 values (concentration producing a half-maximal response) were determined by non-linear regression analysis of the concentration-response curves generated with mean replicate values using Hill equation curve fitting: Y=D+[(A−D)/(1+(C/C50)^nH)], where Y=response, A=left asymptote of the curve, D=right asymptote of the curve, C=compound concentration, and C50=EC50, and nH=slope factor. This analysis was performed using software developed at Cerep (Hill software) and validated by comparison with data generated by the commercial software SigmaPlot® 4.0 for Windows® (© 1997 by SPSS Inc.).

CB2 receptor [2] = target: T1, CB2 receptor; assay: cell-based; set-up: host or cells: cAMP Hunter cell lines
Method in brief: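 PathHunter β-Arrestin enzyme fragment complementation cells, EA-tagged β-Arrestin and PK-tagged receptor, exposed to compound for 90 to 180 minutes at 37° C. or room temperature, 1% vehicle. Chemiluminescence read 1 h after detection reagent; agonist % activity relative to vehicle and MAX control ligand.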

CB2 receptor [3] = target: T1, CB2 receptor; assay: cAMP Assay #2: Hit Hunter cAMP assay, Gi-coupled agonist activity, CB2; type: cell-based; set-up: host or cells: cAMP Hunter cell lines; conditions: for CB2 fold selectivity: CB1 EC50 / CB2 EC50
CB1 receptor [4] = target: T2, CB1 receptor (Homo sapiens, UniProt P21554); assay: CB1 competitive radioligand binding assay ([3H] SR141716A); set-up: expressed in transfected cells; host or cells: Chem-1 cells; conditions: for inhibition at 0.5 µM: 0.5 μM compound, 2.0 nM [3H] SR141716A, 90 min 37° C.
Method in brief: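 Chem-1 cells expressing human recombinant CB1 incubated 90 min at 37° C with 2.0 nM [3H]SR141716A and compound at 0.5 μM (1% DMSO) in HEPES pH 7.4 buffer with MgCl2, CaCl2, 0.2% BSA. Read-out is % inhibition of radioligand binding.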

CB1 receptor [5] = target: T2, CB1 receptor; assay: cAMP Assay #2: Hit Hunter cAMP assay, Gi-coupled agonist activity, CB1; type: cell-based; set-up: host or cells: PathHunter cell lines
[6] = CHO cells, 10 min 37° C., relative to 100 nM WIN 55212-2, read-out: CB2 Activity EC50 (cAMP)
[7] = PathHunter agonist mode, read-out: CB2 Activity (β-Arrestin)
[8] = Hit Hunter cAMP, 25 μM forskolin, control ligand CP55,940, read-out: CB2, EC50
[9] = Table 2, read-out: CB1 Binding Ki
[10] = Hit Hunter cAMP, 20 μM forskolin, control ligand CP55,940, read-out: CB1, EC50

T1 sequence (P34972 whole entry): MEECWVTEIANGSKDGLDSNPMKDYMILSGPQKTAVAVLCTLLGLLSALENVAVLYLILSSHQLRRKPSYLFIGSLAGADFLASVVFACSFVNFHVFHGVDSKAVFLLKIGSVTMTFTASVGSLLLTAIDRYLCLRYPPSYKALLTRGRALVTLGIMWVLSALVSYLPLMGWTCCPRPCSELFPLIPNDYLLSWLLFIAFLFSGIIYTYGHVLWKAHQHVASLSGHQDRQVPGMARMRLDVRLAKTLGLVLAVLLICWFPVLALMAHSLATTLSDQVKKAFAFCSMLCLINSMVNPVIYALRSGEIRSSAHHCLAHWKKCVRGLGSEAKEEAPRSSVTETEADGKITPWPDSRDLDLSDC
T2 sequence (P21554 whole entry): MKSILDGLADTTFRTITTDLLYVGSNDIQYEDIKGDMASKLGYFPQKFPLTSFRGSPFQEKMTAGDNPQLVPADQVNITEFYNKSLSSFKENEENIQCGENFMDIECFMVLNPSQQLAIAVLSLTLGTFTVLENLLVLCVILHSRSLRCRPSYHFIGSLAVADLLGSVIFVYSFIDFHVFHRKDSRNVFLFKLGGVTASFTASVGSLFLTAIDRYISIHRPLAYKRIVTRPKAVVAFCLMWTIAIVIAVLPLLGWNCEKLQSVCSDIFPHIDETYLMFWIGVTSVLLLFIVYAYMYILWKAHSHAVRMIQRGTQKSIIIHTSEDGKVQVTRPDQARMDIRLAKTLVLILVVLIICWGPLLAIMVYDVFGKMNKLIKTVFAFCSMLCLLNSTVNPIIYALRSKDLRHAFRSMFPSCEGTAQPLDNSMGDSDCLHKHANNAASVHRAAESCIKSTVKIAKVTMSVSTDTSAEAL

Compound CCCCCCC(C)(C)c1cc(O)c2c(c1)OC(C)(C)[C@@H]1CC=C(C(=O)O)C[C@@H]21 [AJA, (6aR,10aR)-1-hydroxy-6,6-dimethyl-3-(2-methyl-2-octanyl)-6a,7,10,10a-tetrahydro-6H-benzo[c]chromene-9-carboxylic acid, reference compound] has an EC50 (CB2 receptor [1]) of 21 nM, an EC50 (CB2 receptor [2]) of 11 nM and an EC50 (CB2 receptor [3]) of 7 nM. For the same compound, the CB2 fold selectivity (CB2 receptor [3]; Hit Hunter cAMP) was 11.0, the Ki (CB1 receptor [4]) was > 3000 nM and the inhibition at 0.5 µM (CB1 receptor [4]) was -1%. For the same compound, the EC50 (CB1 receptor [5]) was 77.1 nM.

CCCCCCC(C)(C)c1cc(O)c2c(c1)OC(C)(C)[C@@H]1CC=C(C(=O)NC(C)(C)CCO)C[C@@H]21 [Compound 15, (6aR,10aR)-1-Hydroxy-N-(4-hydroxy-2-methylbutan-2-yl)-6,6-dimethyl-3-(2-methyloctan-2-yl)-6a,7,10,10a-tetrahydro-6H-benzo[c]chromene-9-carboxamide] was tested, and the EC50 (CB2 receptor [1]; [6]) was 7.5 nM, the EC50 (CB2 receptor [2]; [7]) was > 3000 nM and the EC50 (CB2 receptor [3]; [8]) was 2.7 nM. The CB2 fold selectivity (CB2 receptor [3]; Hit Hunter cAMP) was 164.1, the inhibition at 0.5 µM (CB1 receptor [4]) was 16% and the Ki (CB1 receptor [4]; [9]) was 660 nM. For the same compound, the EC50 (CB1 receptor [5]; [10]) was 448 nM.

For CCCCCCC(C)(C)c1cc(O)c2c(c1)OC(C)(C)[C@@H]1CC=C(C(=O)NC(CO)CO)C[C@@H]21 [Compound 25, (6aR,10aR)-N-(1,3-Dihydroxypropan-2-yl)-1-hydroxy-6,6-dimethyl-3-(2-methyloctan-2-yl)-6a,7,10,10a-tetrahydro-6H-benzo[c]chromene-9-carboxamide], the EC50 (CB2 receptor [1]; [6]) was 11 nM, the EC50 (CB2 receptor [2]; [7]) was 10 nM and the EC50 (CB2 receptor [3]; [8]) was 9 nM. The CB2 fold selectivity (CB2 receptor [3]; Hit Hunter cAMP) was 40.0, the inhibition at 0.5 µM (CB1 receptor [4]) was 29% and the Ki (CB1 receptor [4]; [9]) was 316 nM. It also gave an EC50 (CB1 receptor [5]; [10]) of 360 nM.

CCCCCCC(C)(C)c1cc(O)c2c(c1)OC(C)(C)[C@@H]1CC=C(C(=O)OC(C)C)C[C@@H]21 [Compound 29, Isopropyl (6aR,10aR)-1-hydroxy-6,6-dimethyl-3-(2-methyloctan-2-yl)-6a,7,10,10a-tetrahydro-6H-benzo[c]chromene-9-carboxylate] was tested, and the EC50 (CB2 receptor [1]) was 2.3 nM, the EC50 (CB2 receptor [2]; [7]) was 3 nM and the EC50 (CB2 receptor [3]) was 1 nM. The CB2 fold selectivity (CB2 receptor [3]; Hit Hunter cAMP) was 9.6, the inhibition at 0.5 µM (CB1 receptor [4]) was 65% and the EC50 (CB1 receptor [5]) was 9.6 nM.

CCCCCCC(C)(C)c1cc(O)c2c(c1)OC(C)(C)[C@@H]1CC=C(C(=O)NC[C@@H](O)CO)C[C@@H]21 [Compound 55, (6aR,10aR)-N—((R)-2,3-Dihydroxypropyl)-1-hydroxy-6,6-dimethyl-3-(2-methyloctan-2-yl)-6a,7,10,10a-tetrahydro-6H-benzo[c]chromene-9-carboxamide] gave an EC50 (CB2 receptor [1]; [6]) of 5.2 nM, an EC50 (CB2 receptor [2]; [7]) of 6.9 nM and an EC50 (CB2 receptor [3]; [8]) of 5.7 nM. The CB2 fold selectivity (CB2 receptor [3]; Hit Hunter cAMP) was 30.5, the Ki (CB1 receptor [4]; [9]) was 619 nM and the EC50 (CB1 receptor [5]; [10]) was 175 nM.

With CCCCCCC(C)(C)c1cc(O)c2c(c1)OC(C)(C)[C@@H]1CC=C(C(=O)NC[C@H](O)CO)C[C@@H]21 [Compound 56, (6aR,10aR)-N—((S)-2,3-Dihydroxypropyl)-1-hydroxy-6,6-dimethyl-3-(2-methyloctan-2-yl)-6a,7,10,10a-tetrahydro-6H-benzo[c]chromene-9-carboxamide] the EC50 (CB2 receptor [1]; [6]) was 8.7 nM, the EC50 (CB2 receptor [2]; [7]) was 6.9 nM and the EC50 (CB2 receptor [3]; [8]) was 8.4 nM. For the same compound, the CB2 fold selectivity (CB2 receptor [3]; Hit Hunter cAMP) was 30.0, the Ki (CB1 receptor [4]; [9]) was 708 nM and the EC50 (CB1 receptor [5]; [10]) was 250 nM.
